Measured values: BindingDB's records for doi:10.1124/mol.58.6.1375 (University of Alabama At Birmingham, 2000)
pKi: −log10 of the molar value.

biological target: T1, Gamma-aminobutyric acid receptor subunit rho-3 (Homo sapiens, UniProt A8MPY1)
T1 sequence (A8MPY1 whole entry): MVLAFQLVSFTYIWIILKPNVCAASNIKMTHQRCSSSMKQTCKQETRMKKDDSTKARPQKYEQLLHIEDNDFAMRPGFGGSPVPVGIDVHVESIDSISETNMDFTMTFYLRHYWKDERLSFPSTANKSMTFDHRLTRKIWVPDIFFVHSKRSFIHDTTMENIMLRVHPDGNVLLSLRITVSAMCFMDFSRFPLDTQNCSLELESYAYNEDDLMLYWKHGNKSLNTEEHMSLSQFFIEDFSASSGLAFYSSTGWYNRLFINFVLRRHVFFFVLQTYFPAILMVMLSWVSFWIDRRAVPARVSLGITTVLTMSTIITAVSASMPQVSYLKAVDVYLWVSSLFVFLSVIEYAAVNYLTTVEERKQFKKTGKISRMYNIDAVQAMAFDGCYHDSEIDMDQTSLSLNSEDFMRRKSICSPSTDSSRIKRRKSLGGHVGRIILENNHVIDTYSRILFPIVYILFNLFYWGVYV

SMILES | pKi
O=C(O)Cc1c[nH]cn1 [1H-imidazol-4-ylacetic acid] | 6.82
O=C(O)C1=CCNCC1 [1,2,3,6-Tetrahydro-pyridine-4-carboxylic acid] | < 5.00
N[C@@H]1C(=O)N2C(C(=O)O)=C(CSc3cnn[nH]3)CS[C@H]12 [CAS_37539-03-0] | 6.44
NCc1cc(=O)[nH]o1 | 6.34
NCCCC(=O)O [4-amino-n-[2,3-3H]butyric acid] | 6.24
